Source: publication PMC4434051, “Biological evaluation of new potential anticancer agent for tumour imaging and radiotherapy by two methods: ^99mTc-radiolabelling and EPR spectroscopy” (Biotechnology, Biotechnological Equipment, 2014)

Legend:
[1] = cited from earlier work; for half-life: formerly reported
[2] = EPR organ and blood distribution of SLENU after i.p. administration; format: in vivo, male albino non-inbred mice; conditions: i.p. 40 mg/kg
Description: For EPR experiments of SLENU (administrated i.p. at a dose of 40 mg/kg) blood samples were taken from the free-streaming blood of a male albino non-inbred mice and were collected into heparinized tubes containing PBS (pH = 7–7.4). […] Decay-corrected radioactivity in the blood was expressed as per cent injected dose in the blood, using the total blood volume as 7% of the body weight. Animal protocols have been approved by the Bulgarian/Indian Institutional Animals ethics Committee.
First biodistribution study for EPR experiments of SLENU in organ homogenates (liver, lungs, spleen, pancreas, brain, kidneys) and blood was evaluated in male albino non-inbred mice (35–40 g body weight, normal diet) as previously described by. Spin-labelled nitrosourea was administrated i.p. at a dose of 40 mg/kg. Animals were decapitated at appropriate time points following injection (10, 30, 60, 90 min and on 4 h, 24 h) and dissected. Tissues from lungs, liver, spleen, brain, kidneys, pancreas and blood were collected and processed immediately. For nitrosourea extraction, samples were weighed and homogenized in PBS (10% w/v) and centrifuged at 2000 g for 15 min. Supernatants were collected and the concentration of nitrosourea was evaluated by EPR spectroscopy. Before measuring the spin-labelled concentration, the samples were […] by K3[Fe(CN6)] (a spectroscopic broadening reagent), because of the fast reduction of the nitroxide function (10–20 min) in the tissues.

[3] = cited from earlier work
[4] = cited from earlier work; remark: listed apart in the source
Lymphoma L1210 = test system: Lymphoma L1210; parameters: method as in PMID 19081996, PMID 19718801, PMID 20097958; conditions: C57BL/Lymphoma L1210 bearing mice; cited from earlier work

In the case of O=NN(CCCl)C(=O)NC1CCCCC1 [CCNU, 1-(2-chloroethyl)-3-cyclohexyl-1-nitrosourea, reference compound], the half-life [1] is given as 0.9 h.
With CCN(N=O)C(=O)NC1CC(C)(C)N([O])C(C)(C)C1 [SLENU, 1-ethyl-1-nitroso-3-[4-(2,2,6,6-tetramethylpiperidine-1-oxyl)]-urea] the “time of maximum concentration in blood (EPR)” value ([2]; blood) was 60 min, the “time of maximum concentration in brain (EPR)” value ([2]; brain homogenate) was 60 min and the “time of maximum concentration in kidneys (EPR)” value ([2]; kidneys homogenate) was 60 min. The “time of maximum concentration in liver (EPR)” value ([2]; liver homogenate) was 90 min, the “time of maximum concentration in lungs (EPR)” value ([2]; lungs homogenate) was 30 min and the “time of maximum concentration in pancreas (EPR)” value ([2]; pancreas homogenate) was 60 min. For the same molecule, the “time of maximum concentration in spleen (EPR)” value ([2]; spleen homogenate) was 60 min, the “presence of spin-labelled nitrosourea in tissues (EPR)” value ([2]; within 24 h, all tissues studied) was “complete absence” and the τ0.5 [1] was 75 min. For the same molecule, the half-life [1] was 1.25 h, the alkylating activity [3] was 0.008 A560/mmol/L/h and the “alkylating activity relative to CCNU” value ([3]; formerly reported) was “lower than that of CCNU”. For the same molecule, the carbamoylating activity ([4]; EPR research) was 54.46 ± 0.17, the “carbamoylating activity relative to CCNU” value ([4]; formerly reported) was “high and comparable with that of CCNU” and the “optimal dose for anticancer activity” value (Lymphoma L1210) was 45 mg/kg.
